Literature values as cited in patent US11839630B2, “CAR-T cells targeting IL-1RAP and their use” (ETABLISSEMENT FRANCAIS DU SANG, priority 2017, dated 2023).

How the values were obtained:
[1] = system: CML; settings: cited from earlier work
[2] = system: CML; settings: cited from earlier work; remark: listed apart in the source

Cc1ccc(NC(=O)c2ccc(CN3CCN(C)CC3)cc2)cc1Nc1nccc(-c2cccnc2)n1 [Imatinib]
patients relapsed after discontinuation ([1]; 42 of 69 patients, treatment of more than 2 years discontinued): 61%
probability of persistent molecularly undetectable leukemia ([1]; at 12 months, 69 patients): 41%
rate of molecular relapse after stopping TKI ([2]; n=100 patients with complete molecular response): 61%
median time of molecular relapse ([2]; n=100 patients): 2.5 months
